system: symmetric di-methyl arginine in Z-138 cells; experiment: Z-138 Methylation Assay (In Cell Western for symmetric di-methyl arginine and DNA content); format: cell-based; details: Homo sapiens; Z-138 methylation In Cell Western; read-out: ICW EC50
From the text: [formula] [formula] Where top and bottom are the normally allowed to float, but may be fixed at 100 or 0 respectively in a 3-parameter fit. The Hill Coefficient normally allowed to float but may also be fixed at 1 in a 3-parameter fit. Y is the % inhibition and X is the compound concentration.
RPMI/Glutamax medium, penicillin-streptomycin, heat inactivated fetal bovine serum, and D-PBS were purchased from Life Technologies, Grand Island, N.Y., USA. Odyssey blocking buffer, 800CW goat anti-rabbit IgG (H+L) antibody, and Licor Odyssey infrared scanner were purchased from Licor Biosciences, Lincoln, Nebr., USA. Symmetric di-methyl arginine antibody was purchased from EMD Millipore, Billerica, Mass., USA. 16% Paraformaldehyde was purchased from Electron Microscopy Sciences, Hatfield, Pa., USA.
Cell Treatment, in Cell Western (ICW) for Detection of Symmetric Di-Methyl Arginine and DNA Content.
Z-138 cells were seeded in assay medium at a concentration of 50,000 cells per mL to a 384-well cell culture plate with 50 μL per well. Compound (100 nL) from 384 well source plates was added directly to 384 well cell plate. Plates were incubated at 37° C., 5% CO2 for 96 hours. […] Plates were incubated at room temperature for 30 minutes then incubated at 37° C., 5% CO2 for 5 hours. After the incubation, 40 μL per well of 8% paraformaldehyde in PBS (16% paraformaldahyde was diluted to 8% in PBS) was added to each plate and incubated for 30 minutes. […] Next 30 μL per well of Odyssey blocking buffer were added to each plate and incubated 1 hour at room temperature. Blocking buffer was removed and 20 μL per well of primary antibody was added (symmetric di-methyl arginine diluted 1:100 in Odyssey buffer with 0.1% Tween 20 (v/v)) and plates were incubated overnight (16 hours) at 4° C. Plates were washed 5 times with 100 μL per well of wash buffer. Next 20 μL per well of secondary antibody was added (1:200 800CW goat anti-rabbit IgG (H+L) antibody, 1:1000 DRAQ5 (Biostatus limited) in Odyssey buffer with 0.1% Tween 20 (v/v)) and incubated for 1 hour at room temperature. The plates were washed 5 times with 100 μL per well wash buffer then 1 time with 100 μL per well of water. Plates were allowed to dry at room temperature then imaged on the Licor Odyssey machine which measures integrated intensity at 700 nm and 800 nm wavelengths. Both 700 and 800 channels were scanned.
First, the ratio for each well was determined by:
Each plate included fourteen control wells of DMSO only treatment (minimum inhibition) as well as fourteen control wells for maximum inhibition treated with 3 μM of a reference compound (Background wells). The average of the ratio values for each control type was calculated and used to determine the percent inhibition for each test well in the plate. Reference compound was serially diluted three-fold in DMSO for a total of nine test concentrations, beginning at 3 μM. Percent inhibition was determined and IC50 curves were generated using triplicate wells per concentration of compound.

Structure (SMILES)	EC50 [nM]
CN1CCC(Oc2cncc(C(=O)NC[C@H](O)CN3CCc4ccccc4C3)c2)CC1 [Compound 288]	101 to 1000
O=C(NC[C@H](O)CN1CCc2ccccc2C1)c1cccc2ccccc12 [Compound 295]	101 to 1000

More lines, now with the values ahead:

EC50 [nM]	Structure (SMILES)
< 100	O=C(NC[C@H](O)CN1CCc2ccccc2C1)c1cncc(NC2COC2)c1 [Compound 299]
< 100	CS(=O)(=O)N1CCC(Oc2cncc(C(=O)NC[C@H](O)CN3CCc4ccccc4C3)c2)CC1 [Compound 290]
< 100	O=C(NC[C@H](O)CN1CCc2ccccc2C1)c1cncc(NC2CCN(CC(F)(F)F)C2)c1 (some centres unmarked) [Compound 303]

Source: patent publication US10391089B2, “PRMT5 inhibitors and uses therof” (Epizyme, Inc., priority 2012, dated 2019)
